Consider 27 molecules from patent US6509328B1, “Glutamate receptor antagonists” (Hoffmann-La Roche Inc., priority 1999, dated 2003).

Each structure is given as a SMILES string.

The target of one series is T1, rat mGlu2 receptor (Rattus norvegicus, UniProt P31421).
T1 construct: expressed in transfected cells; vector pcDNA I-amp (pcD1mGR2)
Description: [3H]-LY354740 binding on mGlu2 transfected CHO cell membranes. The source says: [^3H]-LY354740 Binding on mGlu2 Transfected CHO Cell Membranes
Transfection and Cell Culture
cDNA encoding the rat mGlu2 receptor protein in pBluescript II was obtained from Prof. S. Nakanishi (Kyoto, Japan), and subcloned into the eukaryotic expression vector pcDNA I-amp from Invitrogen (N V Leek, The Netherlands). This vector construct (pcD1mGR2) was co-transfected with a psvNeo plasmid encoding the gene for neomycin resistance, into CHO cells by a modified calcium phosphate method described by Chen & Okayama (1988). The cells were maintained in Dulbecco's Modified Eagle medium with reduced L-glutamine (2 mM final concentration) and 10% dialysed foetal calf serum from Gibco BRL (Basel, Switzerland). Selection was made in the presence of […] (1000 ug/ml final). Clones were identified by reverse transcription of 5 μg total RNA, followed by PCR using mGlu2 receptor specific primers 5′-[…]-3′ and 5′-[…]-3′ in 60 mM Tris HCl (pH 10), 15 mM (NH4)2SO4, 2 mM MgCl2, 25 units/ml Taq Polymerase with 30 cycles annealing at 60° C. for 1 min., extension at 72° C. for 30s, and 1 min. 95° C. denaturation.
Cells, cultured as above, were harvested and washed three times with cold PBS and frozen at −80° C. The pellet was resuspended in cold 20 mM HEPES-NaOH buffer containing 10 mM EDTA (pH 7.4), and homogenised with a polytron (Kinematica, AG, Littau, Switzerland) for 10s at 10,000 rpm. After centrifugation for 30 min. at 4° C., the pellet was washed once with the same buffer, and once with cold 20 mM HEPES-NaOH buffer containing 0.1 mM EDTA, (pH 7.4). Protein content was measured using the Pierce method (Socochim, Lausanne, Switzerland) using bovine serum albumin as standard.
After thawing, the membranes were resuspended in cold 50 mM Tris-HCl buffer containing 2 mM MgCl2 and 2 mM CaCl2, (pH 7) (binding buffer). The final concentration of the membranes in the assays was 25 μg protein/ml. Inhibition experiments were performed with membranes incubated with 10 nM [^3H]-LY354740 at room temperature, for 1 hour, in presence of various concentrations of the compound to be tested. Following the incubations, membranes were filtered onto Whatmann GF/C glass fiber filters and washed 5 times with cold binding buffer. Non specific binding was measured in the presence of 10 μM DCG IV (TOCRIS No. 0975). After transfer of the filters into plastic vials containing 10 ml of Ultima-gold scintillation fluid (Packard, Zürich, Switzerland), the radioactivity was measured by liquid scintillation in a Tri-Carb 2500 TR counter (Packard, Zürich, Switzerland).
The inhibition curves were fitted with a four parameter logistic equation giving IC50 values, and Hill coefficients.

T1 sequence (P31421 19-872): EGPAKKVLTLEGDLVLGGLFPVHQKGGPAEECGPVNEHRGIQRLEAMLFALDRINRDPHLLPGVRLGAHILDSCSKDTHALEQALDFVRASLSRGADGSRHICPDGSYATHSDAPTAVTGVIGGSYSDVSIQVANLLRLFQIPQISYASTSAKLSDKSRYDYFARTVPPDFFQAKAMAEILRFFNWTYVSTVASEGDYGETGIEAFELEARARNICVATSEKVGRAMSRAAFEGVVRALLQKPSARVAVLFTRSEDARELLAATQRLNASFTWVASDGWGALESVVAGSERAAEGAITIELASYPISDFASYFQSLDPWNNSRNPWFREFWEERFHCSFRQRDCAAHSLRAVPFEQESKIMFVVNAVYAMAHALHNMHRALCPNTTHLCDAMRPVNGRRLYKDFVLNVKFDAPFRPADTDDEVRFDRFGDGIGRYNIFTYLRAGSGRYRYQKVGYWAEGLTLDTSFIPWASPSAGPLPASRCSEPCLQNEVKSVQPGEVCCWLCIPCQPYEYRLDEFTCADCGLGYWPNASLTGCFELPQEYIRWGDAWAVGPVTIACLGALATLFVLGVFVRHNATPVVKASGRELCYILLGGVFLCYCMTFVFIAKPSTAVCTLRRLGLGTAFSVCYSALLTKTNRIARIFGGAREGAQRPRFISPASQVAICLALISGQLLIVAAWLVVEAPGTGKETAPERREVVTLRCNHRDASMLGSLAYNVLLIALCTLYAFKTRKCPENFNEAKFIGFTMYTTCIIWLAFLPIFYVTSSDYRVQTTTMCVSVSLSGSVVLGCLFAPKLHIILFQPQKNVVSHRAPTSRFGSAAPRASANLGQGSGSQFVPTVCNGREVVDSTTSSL

The molecule `O=C1CC(c2cccc(-n3ccnc3)c2)=Nc2ccc(C#Cc3ccccc3)cc2N1` [Example 52] showed a melting point of 193 to 196 °C. The same molecule yielded an inhibition constant (Ki) on rat mGlu2 receptor of 6 nM. For `O=C1CC(c2csc(-n3ccnc3)n2)=Nc2ccc(-c3ccccc3F)cc2N1` [Example 124, 8-(2-Fluoro-phenyl)-4-(2-imidazol-1-yl-thiazol-4-yl)-1,3-dihydro-benzo [b][1,4]diazepin-2-one], in that order: 194 to 197 °C and 298 nM. The molecule `O=C1CC(c2cccc(-n3ccnn3)c2)=Nc2ccc(-c3ccc(F)cc3F)cc2N1` [Example 123, 8-(2,4-Difluoro-phenyl)-4-(3-[1,2,3]triazol-1-yl-phenyl)-1,3-dihydro-benzo [b][1,4]diazepin-2-one] registered a Ki on rat mGlu2 receptor of 10 nM. As to `O=C1CC(c2cccc(-c3nc(CO)cs3)c2)=Nc2ccc(-c3ccccc3F)cc2N1` [Example 157, 8-(2-Fluoro-phenyl)-4-[3-(4-hydroxymethyl-thiazol-2-yl)-phenyl]-1,3-dihydro-benzo[b][1,4]diazepin-2-one], the Ki on rat mGlu2 receptor worked out at 16 nM. With `O=C1CC(c2cccc(-n3cncn3)c2)=Nc2ccc(C#Cc3ccc(F)cc3)cc2N1` [Example 62, 8-(4-Fluoro-phenylethynyl)-4-(3-[1,2,4]triazol-1-yl-phenyl)-1,3-dihydro-benzo[b][1,4]diazepin-2-one], the melting point fell in the range of 217 to 218 °C. On rat mGlu2 receptor, the affinity corresponds to a Ki of 49 nM. For `N#Cc1cc(C2=Nc3ccc(-c4ccc(F)cc4F)cc3NC(=O)C2)ccn1` [Example 104, 4-[7-(2,4-Difluoro-phenyl)-4-oxo-4,5-dihydro-3H-benzo [b][1,4]diazepin-2-yl]-pyridine-2-carbonitrile], in that order: 250 to 253 °C and 26 nM. On rat mGlu2 receptor, `N#Cc1cccc(C2=Nc3ccc(-c4ccc(F)cc4)cc3NC(=O)C2)c1` [Example 57, 3-[7-(4-Fluoro-phenyl)-4-oxo-4,5-dihydro-3H-benzo[b][1,4]diazepin-2-yl]-benzonitrile] registered a Ki of 55 nM. Same read-out and setting: the result for `N#Cc1cc(C2=Nc3ccc(C#Cc4ccccc4)cc3NC(=O)C2)ccn1` [Example 98, 4-(4-Oxo-7-phenylethynyl-4,5-dihydro-3H-benzo [b][1,4]diazepin-2-yl)-pyridine-2-carbonitrile] reads 39 nM.

`O=C1CC(c2cccc(-n3ccnc3)c2)=Nc2ccc(C#Cc3ccc(F)cc3)cc2N1` [Example 58, 8-(4-Fluoro-phenylethynyl)-4-(3-imidazol-1-yl-phenyl)-1,3-dihydro-benzo [b][1,4]diazepin-2-one] had a melting point of 216 to 218 °C. The molecule further registered a Ki at rat mGlu2 receptor of 4 nM.

Consider `N#Cc1cccc(C2=Nc3ccc(I)cc3NC(=O)C2)c1` [Example 1, 3-(7-Iodo-4-oxo-4,5-dihydro-3H-benzo[b][1,4]diazepin-2-yl)-benzonitrile], for which the melting point is 198 to 200 °C (dec.). The molecule also registered an inhibition constant Ki at rat mGlu2 receptor of 17 nM. `O=C1CC(c2cccc(-n3cnnn3)c2)=Nc2ccc(C#Cc3ccc(F)cc3)cc2N1` [Example 87, 8-(4-Fluoro-phenylethynyl)-4-(3-tetrazol-1-yl-phenyl)-1,3-dihydro-benzo [b][1,4]diazepin-2-one]: the Ki on rat mGlu2 receptor was determined as 36 nM. On to `Cc1cc(F)ccc1-c1ccc2c(c1)NC(=O)CC(c1cccc(-n3ccnc3)c1)=N2` [Example 79, 8-(4-Fluoro-2-methyl-phenyl)-4-(3-imidazol-1-yl-phenyl)-1,3-dihydro-benzo[b][1,4]diazepin-2-one], for which the melting point lay within 170 to 172 °C. The molecule also came in with an inhibition constant Ki on rat mGlu2 receptor of 50 nM. For `N#Cc1ccsc1C1=CC(=O)Nc2cc(-c3ccc(F)cc3)ccc2N1` [Example 83, 2-[7-(4-Fluoro-phenyl)-4-oxo-4,5-dihydro-1H-benzo [b][1,4]diazepin-2-yl]-thiophene-3-carbonitrile], in that order: 239 to 240 °C and 250 nM. For `Cc1cn(-c2cccc(C3=Nc4ccc(-c5ccc(F)cc5)cc4NC(=O)C3)c2)cn1` [Example 76, 8-(4-Fluoro-phenyl)-4-[3-(4-methyl-imidazol-1-yl)-phenyl]-1,3-dihydro-benzo [b][1,4]diazepin-2-one], in that order: 215 °C and 16 nM. For `Cc1nnc(-c2cccc(C3=Nc4ccc(-c5ccc(F)cc5)cc4NC(=O)C3)c2)n1C` [Example 166, 4-[3-(4,5-Dimethyl-4H-[1,2,4]triazol-3-yl)-phenyl]-8-(4-fluoro-phenyl)-1,3-dihydro-benzo[b][1,4]diazepin-2-one], in that order: 238 to 240 °C (dec.) and 108 nM.

Consider `Cc1cc(-c2cccc(C3=Nc4ccc(-c5ccc(F)cc5)cc4NC(=O)C3)c2)on1` [Example 117, 8-(4-Fluoro-phenyl)-4-[3-(3-methyl-isoxazol-5-yl)-phenyl]-1,3-dihydro-benzo[b][1,4]diazepin-2-one], for which the melting point is more than 250 °C. On rat mGlu2 receptor, this molecule showed an inhibitory constant (Ki) of 289 nM.

`O=C1CC(c2cccc(Cl)c2)=Nc2ccc(C#Cc3ccccc3)cc2N1` [Example 5, 4-(3-Chloro-phenyl)-8-phenylethynyl-1,3-dihydro-benzo[b][1,4]diazepin-2-one] displayed a Ki at rat mGlu2 receptor of 40 nM. The same measure, in the same setting: the result for `O=C1CC(c2cccc(-n3ccnn3)c2)=Nc2ccc(-c3cccc(F)c3F)cc2N1` [Example 129, 8-(2,3-Difluoro-phenyl)-4-(3-[1,2,3]triazol-1-yl-phenyl)-1,3-dihydro-benzo[b][1,4]diazepin-2-one] reads 13 nM. In the case of `O=C1CC(c2cccc(-n3ccnc3)c2)=Nc2ccc(-c3ccc(F)cc3O)cc2N1` [Example 80, 8-(4-Fluoro-2-hydroxy-phenyl)-4-(3-imidazol-1-yl-phenyl)-1,3-dihydro-benzo[b][1,4]diazepin-2-one], the melting point turned out to be 220 °C. This molecule returned an inhibition constant (Ki) at rat mGlu2 receptor of 170 nM.

`O=C1CC(c2cccc(-n3ccnn3)c2)=Nc2ccc(-c3ccccc3F)cc2N1` [Example 110, 8-(2-Fluoro-phenyl)-4-(3-[1,2,3]triazol-1-yl-phenyl)-1,3-dihydro-benzo [b][1,4]diazepin-2-one] gave an inhibitory constant (Ki) at rat mGlu2 receptor of 8 nM. On to `O=C1CC(c2cccc(-c3nc(C(=O)O)cs3)c2)=Nc2ccc(-c3ccccc3F)cc2N1` [Example 160, 2-{3-[7-(2-Fluoro-phenyl)-4-oxo-4,5-dihydro-3H-benzo [b][1,4]diazepin-2-yl]-phenyl}-thiazole-4-carboxylic Acid], for which the inhibition constant Ki on rat mGlu2 receptor was 16 nM. With `Cc1cc(-c2cccc(C3=Nc4ccc(-c5ccccc5F)cc4NC(=O)C3)c2)on1` [Example 127, 8-(2-Fluoro-phenyl)-4-[3-(3-methyl-isoxazol-5-yl)-phenyl]-1,3-dihydro-benzo-[b][1,4]diazepin-2-one], the melting point fell in the range of 222 to 224 °C. Regarding `COc1cccc(-c2ccc3c(c2)NC(=O)CC(c2cccc(C#N)c2)=N3)c1` [Example 39, 3-[7-(3-Methoxy-phenyl)-4-oxo-4,5-dihydro-3H-benzo [b][1,4]diazepin-2-yl]-benzonitrile], the melting point is 240 to 243 °C (dec.). With `O=C1CC(c2ccnc(-n3ccnc3)c2)=Nc2ccc(C#Cc3ccc(F)cc3)cc2N1` [Example 68, 8-(4-Fluoro-phenylethynyl)-4-(2-imidazol-1-yl-pyridin-4-yl)-1,3-dihydro-benzo[b][1,4]diazepin-2-one], the melting point is 206 °C (dec.). This molecule also had a Ki on rat mGlu2 receptor of 4 nM.

Regarding `NC(=S)c1cccc(C2=Nc3ccc(-c4ccccc4F)cc3NC(=O)C2)c1` [Example 150, 3-[7-(2-Fluoro-phenyl)-4-oxo-4,5-dihydro-3H-benzo[b][1,4]diazepin-2-yl]-thiobenzamide], the melting point was 232 to 234 °C (dec.). Same read-out and setting: the same measure for `N#Cc1cccc(C2=Nc3ccc(C#Cc4ccc(OC(F)(F)F)cc4)cc3NC(=O)C2)c1` [Example 55, 3-[4-Oxo-7-(4-trifluoromethoxy-phenylethynyl)-4,5-dihydro-3H-benzo [b][1,4]diazepin-2-yl]-benzonitrile]: 239 to 241 °C.

With `O=C1CC(c2cccc(-n3ccnc3)c2)=Nc2ccc(C#Cc3ccccc3F)cc2N1` [Example 63, 8-(2-Fluoro-phenylethynyl)-4-(3-imidazol-1-yl-phenyl)-1,3-dihydro-benzo [b][1,4]diazepin-2-one], the melting point lay within 201 to 203 °C.

A word on the melting point: it is the temperature, or range, at which the solid turns liquid. The Ki is a dissociation constant, usually derived from enzyme kinetics or from competition with a known ligand. Low readings indicate tighter binding, high ones weaker binding.
